These results are taken from US20260176232A1, “PROBENECID COMPOUNDS FOR THE TREATMENT OF INFLAMMASOME-MEDIATED DERMATOLOGICAL CONDITIONS” (Bacainn Biotherapeutics, Ltd., priority 2022, published 2026).

Assay [1] concerns T1, ASC speck formation (inflammasome complex).
T1 construct: Flag; expressed in transfected cells; host or cells: NLRP3-deficient immortalized BMDMs
Kind of assay: Nigericin-induced ASC speck formation in ASC-cerulean/NLRP3 macrophages. As to conditions: 350 μM, 60 mins before nigericin 3 μM 90 mins; about 20% of cells with nigericin alone. Type of assay: cell-based. As for the experimental part:
FIGS. 5B-5D are pictures showing the ability of probenecid analogs of the present technology (e.g., BT032) to inhibit the formation of the inflammasome complex following NLRP3 activation. NLRP3-deficient immortalized BMDMs reconstituted with ASC-cerulean (pseudocolor RED) and NLRP3-Flag were either not stimulated (FIG. 5B) or stimulated with NLRP3 agonist nigericin (3 μM) for 90 mins (FIG. 5C). ASC-cerulean macrophages were also pretreated with BT032 (350 μM) for 60 mins prior to nigericin challenge (FIG. 5D). Macrophages were fixed with 4% paraformaldehyde and imaged for the formation of inflammasome specks as identified by intense, punctate staining in the cytosol of cells. Cell nuclei were stained with DAP (4′,6′-diamindino-2-phenylindole; BLUE). Representative images shown are maximum intensity projections of 3D deconvoluted z stacks using ImageJ.
FIG. 5E is a chart showing the number of ASC specks detected per field (6-7 fields per sample) compared to the total number of cells/field as determined by staining nuclei. Data is represented as a percentage of ASC-specks per field of view for each treatment group as outlined in FIGS. 5B-5D.
Methods. […] ASC-cerulean specks were counted for each field and as percentage of specks per field and represented as a percentage of total Hoechst positive cells.

Assay [2] relates to NLRP1 inflammasome. Nature of the assay: IL-1β secretion in macrophages challenged with L18-MDP (FIG. 4C). Type of assay: cell-based, human. As to conditions: BT032 20, 100 μM; MCC950 5 μM; L18-MDP 100 μg/ml 16 h. From the text: (§1) In vitro stimulation of human macrophages.
The test system of assay [3] is inflammasome activation by UVB. Nature of the assay: Dermal UVB inflammatory challenge in healthy volunteers after intradermal dosing. Type of assay: in vivo, human. As for the experimental part:
This is a single-center, inflammatory challenge study in healthy volunteers, to evaluate inflammasome activation by UVB in healthy volunteers. Healthy volunteers will undergo a topical UVB challenge after intradermal dosing with BT032.
UV-B Challenge+BT032 (n=9; 3 Placebo, 6 Active): • Screening: 1 hour admission • Study day (day −1 to 1): 24 hours admission (baseline assessments, challenge, and 2, 4 hr blister, skin assessments) • Follow-up visit 1 (day 2): 1 hour admission (24 hr blister) • End of study visit (+7 days): 1 hour admission
Investigational drug (BT032)+UVB challenge. As part of the screening assessments, the subject's Fitzpatrick skin photo type is determined (type I-VI). The subject is first exposed to 6 different doses of UV-B, to determine the Minimal Erythemic Dose (MED) expressed in J/cm^2, using the six different slots of the UV-B lamp. Twenty-four hours (±2 hours) after the exposure of the 6 doses, the erythemic response of the skin to UV-B is assessed by two observers. The MED is determined visually, by observing which dose produces the first clearly discernible erythema. On the treatment days, the subject's skin is exposed to two minimal erythema doses (2MED) of UVB.
Subjects Groups. A total of 9 healthy volunteers will be enrolled. These subjects will undergo an UVB challenge after dosing with BT032. […]

In another assay the test system is AIM2 inflammasome. Kind of assay: IL-1β secretion in macrophages challenged with poly dA:dT (FIG. 4C). Type of assay: cell-based, human. Conditions: BT032 20, 100 μM; 6 h.
Description: as §1

Assay [4] addresses T2, NLRP3 inflammasome (Mus musculus, UniProt Q8R4B8). Nature of the assay: IL-1β secretion in macrophages challenged with nigericin, MSU or silica (FIG. 4C). As to conditions: BT032 20, 100 μM; MCC950 5 μM; secreted IL-1β.
The target of a further assay is NLRC4 inflammasome (Mus musculus, UniProt Q3UP24). Kind of assay: IL-1β secretion in macrophages challenged with Flagellin (FIG. 4C). Type of assay: cell-based, human. As to conditions: BT032 20, 100 μM; 6 h.
Description: as §1

The subject of assay [5] is NLRP1 inflammasome. Kind of assay: L18-MDP-induced IL-1β secretion in WT or NLRP3-/- immortalized BMDMs (FIG. 8). It is filed as cell-based, murine. As to conditions: 20, 50, 100, 350 μM. From the text: In vitro stimulation of murine macrophages.
The test system of assay [6] is non-canonical inflammasome. Kind of assay: IL-1β secretion in macrophages challenged with LPS (B4) (FIG. 4C). It is filed as cell-based, human. As to conditions: BT032 20, 100 μM; Pam3Cys priming; LPS 0111:B4 16 h.
Description: as §1

In assay [7] the target is T2, NLRP3 inflammasome. Nature of the assay: IL-1β secretion (ELISA) in LPS-primed iBMDMs stimulated with silica or nigericin. Type of assay: cell-based, murine (C57BL/6). Also noted: endogenous in cells; host or cells: immortalized wild-type C57BL/6 bone-marrow derived macrophages (iBMDMs), LPS-primed. Conditions: compared with probenecid in DMSO or PBS. As for the experimental part: In vitro stimulation of murine macrophages. Immortalized wild-type C57BL/6 bone-marrow derived macrophages (iBMDMs) were grown in DMEM supplemented with 10% heat inactivated FBS and 2 mM glutamine. iBMDMs were seeded in 96-well plates 24 hours prior incubation with lipopolysaccharide (LPS; 100 ng/mL) for 3 hours. Cells were then incubated with a control probenecid compound (probenecid dissolved in DMSO (Prob/D), probenecid dissolved in PBS (Prob/P)) or one of the probenecid analogs of the present technology (BT032, BT132, BT133, BT134, BT135, BT136, BT137, BT138, BT139, or BT140) at concentrations of 300 μM, 150 μM, 30 μM, or 3 μM 1 hour prior to stimulation with NLRP3 inflammasome activators, silica ([…]) or nigericin (6 μM). After an additional 6 hours, cell supernatants were collected and levels of IL-1β were quantified by ELISA. These experiments were run in triplicate three times.
Background: An ELISA detects its analyte on a solid surface through an enzyme-linked reagent.

Another assay deals with Recombinant NLRP3. Kind of assay: Photo-affinity labelling of recombinant NLRP3, anti-PEG immunoblot (FIG. 9C). It is filed as binding. As to conditions: inferred from photo-affinity probes ADS165, ADS167. In general terms: In western blotting, separated proteins are transferred to a membrane and probed.

T2 sequence (Q8R4B8 whole entry): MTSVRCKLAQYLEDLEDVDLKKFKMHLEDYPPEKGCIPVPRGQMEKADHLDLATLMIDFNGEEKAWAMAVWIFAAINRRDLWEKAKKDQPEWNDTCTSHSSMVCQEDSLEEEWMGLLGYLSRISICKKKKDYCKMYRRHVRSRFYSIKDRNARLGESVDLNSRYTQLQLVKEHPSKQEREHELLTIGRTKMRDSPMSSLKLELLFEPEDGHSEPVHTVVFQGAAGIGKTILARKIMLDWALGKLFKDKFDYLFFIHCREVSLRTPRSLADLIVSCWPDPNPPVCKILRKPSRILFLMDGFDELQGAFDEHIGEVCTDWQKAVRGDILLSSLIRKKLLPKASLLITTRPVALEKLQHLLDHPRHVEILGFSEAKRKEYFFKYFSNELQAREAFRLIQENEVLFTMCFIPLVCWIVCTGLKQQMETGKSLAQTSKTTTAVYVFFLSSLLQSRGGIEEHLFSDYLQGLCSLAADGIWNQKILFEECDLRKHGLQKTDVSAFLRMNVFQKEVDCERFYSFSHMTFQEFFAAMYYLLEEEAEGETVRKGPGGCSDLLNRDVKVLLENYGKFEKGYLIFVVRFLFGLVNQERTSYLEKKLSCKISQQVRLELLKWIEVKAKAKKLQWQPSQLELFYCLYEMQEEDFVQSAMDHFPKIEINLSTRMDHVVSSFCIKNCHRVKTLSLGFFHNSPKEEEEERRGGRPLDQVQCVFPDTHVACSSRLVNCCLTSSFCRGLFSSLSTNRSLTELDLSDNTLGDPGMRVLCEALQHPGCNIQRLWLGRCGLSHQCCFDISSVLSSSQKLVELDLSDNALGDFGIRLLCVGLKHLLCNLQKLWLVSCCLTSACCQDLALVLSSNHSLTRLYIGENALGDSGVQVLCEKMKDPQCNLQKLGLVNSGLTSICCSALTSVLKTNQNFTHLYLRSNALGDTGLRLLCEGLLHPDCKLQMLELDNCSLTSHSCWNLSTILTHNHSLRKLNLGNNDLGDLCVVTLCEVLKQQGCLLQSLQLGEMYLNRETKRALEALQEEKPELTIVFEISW
NLRC4 inflammasome, sequence (Q3UP24 whole entry): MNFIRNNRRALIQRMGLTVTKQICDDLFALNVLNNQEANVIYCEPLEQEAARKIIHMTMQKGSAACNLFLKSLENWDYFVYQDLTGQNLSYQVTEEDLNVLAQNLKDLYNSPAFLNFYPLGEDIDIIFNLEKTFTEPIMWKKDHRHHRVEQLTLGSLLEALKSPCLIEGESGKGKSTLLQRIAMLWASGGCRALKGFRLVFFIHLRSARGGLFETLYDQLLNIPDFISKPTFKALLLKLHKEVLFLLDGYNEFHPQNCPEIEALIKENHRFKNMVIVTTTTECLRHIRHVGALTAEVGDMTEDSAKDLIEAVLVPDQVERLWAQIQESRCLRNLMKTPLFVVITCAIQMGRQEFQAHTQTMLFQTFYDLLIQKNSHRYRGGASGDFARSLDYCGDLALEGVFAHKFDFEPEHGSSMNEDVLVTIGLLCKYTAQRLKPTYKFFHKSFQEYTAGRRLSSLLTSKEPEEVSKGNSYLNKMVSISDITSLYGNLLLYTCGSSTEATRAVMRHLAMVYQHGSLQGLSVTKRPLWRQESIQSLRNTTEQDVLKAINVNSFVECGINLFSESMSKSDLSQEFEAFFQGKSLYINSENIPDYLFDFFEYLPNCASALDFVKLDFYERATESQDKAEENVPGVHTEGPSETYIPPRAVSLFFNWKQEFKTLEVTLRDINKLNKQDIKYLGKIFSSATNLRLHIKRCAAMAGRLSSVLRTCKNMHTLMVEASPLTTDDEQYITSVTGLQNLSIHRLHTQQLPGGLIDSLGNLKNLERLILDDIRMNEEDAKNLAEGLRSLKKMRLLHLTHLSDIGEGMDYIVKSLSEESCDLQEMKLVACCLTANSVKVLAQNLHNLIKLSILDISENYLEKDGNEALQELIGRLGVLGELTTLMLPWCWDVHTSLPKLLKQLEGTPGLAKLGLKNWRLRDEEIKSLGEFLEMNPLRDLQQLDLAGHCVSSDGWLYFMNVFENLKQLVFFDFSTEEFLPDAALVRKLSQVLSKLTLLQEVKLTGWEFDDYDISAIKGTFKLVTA
T1 sequence (Q96P20 whole entry, one chain of several): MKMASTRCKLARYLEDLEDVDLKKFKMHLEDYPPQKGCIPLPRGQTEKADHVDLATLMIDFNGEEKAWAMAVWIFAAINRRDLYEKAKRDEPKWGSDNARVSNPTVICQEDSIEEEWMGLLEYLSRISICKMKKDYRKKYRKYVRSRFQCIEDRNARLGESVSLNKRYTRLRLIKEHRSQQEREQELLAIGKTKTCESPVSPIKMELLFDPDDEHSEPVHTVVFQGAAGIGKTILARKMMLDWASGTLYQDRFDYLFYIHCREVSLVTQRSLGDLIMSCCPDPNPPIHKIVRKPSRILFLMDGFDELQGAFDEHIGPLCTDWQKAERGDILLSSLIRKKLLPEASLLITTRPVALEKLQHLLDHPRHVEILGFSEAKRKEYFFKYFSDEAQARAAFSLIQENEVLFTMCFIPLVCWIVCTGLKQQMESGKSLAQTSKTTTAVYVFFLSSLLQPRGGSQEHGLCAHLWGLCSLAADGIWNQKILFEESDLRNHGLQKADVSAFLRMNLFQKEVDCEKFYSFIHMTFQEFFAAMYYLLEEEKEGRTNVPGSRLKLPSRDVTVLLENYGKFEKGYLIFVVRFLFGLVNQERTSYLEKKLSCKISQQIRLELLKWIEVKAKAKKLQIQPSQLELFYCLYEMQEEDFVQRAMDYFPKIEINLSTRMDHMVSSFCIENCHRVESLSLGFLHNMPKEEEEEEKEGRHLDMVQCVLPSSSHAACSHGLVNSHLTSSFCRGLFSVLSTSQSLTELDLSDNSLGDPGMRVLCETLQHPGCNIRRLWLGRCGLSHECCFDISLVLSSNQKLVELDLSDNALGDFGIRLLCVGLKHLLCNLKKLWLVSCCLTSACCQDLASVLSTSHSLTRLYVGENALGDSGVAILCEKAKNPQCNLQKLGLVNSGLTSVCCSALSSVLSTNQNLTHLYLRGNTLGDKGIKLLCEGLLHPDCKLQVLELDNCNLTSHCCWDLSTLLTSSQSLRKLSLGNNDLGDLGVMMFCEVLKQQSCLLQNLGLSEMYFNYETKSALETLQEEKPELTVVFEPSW

Turning to `CCCN(CCC)S(=O)(=O)c1ccc(-c2ccc(CCCC(=O)O)cc2)cc1` [BT032, 4-(4′-(N,N-dipropylsulfamoyl)-[1,1′-biphenyl]-4-yl)butanoic acid], the “ASC specks in cells” value in assay [1] was “substantially reduced ASC specks”. Besides, the “NLRP1 (L18-MDP)-induced inflammasome activation” value in the assay on NLRP1 inflammasome [2] was “dose-dependently inhibited”. Further, the “levels of inflammasome-driven cytokines and/or inflammasome proteins versus non-treated controls” value in assay [3] (IL-1β, IL-18, IL-6, TNF, NLRP3, ASC, NLRP1) is “reduced levels”. The “activation of inflammasomes versus non-treated controls” value in assay [3] (intradermal dosing, UVB 2MED) was “reduction in the activation of inflammasomes”. Further, the “AIM2 (poly dA:dT)-mediated inflammasome activation” value in the assay on AIM2 inflammasome is “no effect”. Further, the “NLRP3 (Nigericin, MSU, Silica)-induced inflammasome activation” value on NLRP3 inflammasome [4] was “dose-dependently inhibited”. In addition, the “NLRC4 (Flagellin)-mediated inflammasome activation” value on NLRC4 inflammasome was “no effect”. Also, the “NLRP1 (L18-MDP)-induced inflammasome activation as measured by IL-1β secretion” value with NLRP1 inflammasome [5] (NLRP3-/- macrophages) and in the assay with NLRP1 inflammasome [5] (WT macrophages) was “dose-dependently inhibited” each time. In addition, in [6], the “non-canonical inflammasome activity (LPS (B4))” value is “limited impact”. Also, the “potency versus control probenecid compounds (IL-1β secretion)” value at NLRP3 inflammasome [7] is reported as “more potent than the control probenecid compounds”. Moreover, the “direct interaction with NLRP3” value in the assay on Recombinant NLRP3 is listed as “directly interacts proximal to the Walker B motif within the NACHT domain”.
